Entries after “also recorded” stand apart in the source; their conditions may differ.
Experiments:
autophagic response = details: CRPC therapy; ref [39]; cited from earlier work
Source text: An important problem of tumor is represented by therapy resistance. In fact, in prostate cancer, numerous studies have investigated the implications of autophagy in resistance to hormonal therapies or chemotherapeutic agents. […] Docetaxel (Doc), a chemotherapeutic drug which inhibits microtubule depolymerization, represents the first-line treatment for metastatic CRPC. The treatment is effective in the early stages, but over time its efficacy is drastic ...

[1] = Peptide aggregation in MST capillaries; format: physicochemical
Procedure: This technique enables the determination of the dissociation constant (Kd) across a concentration range spanning from 1 picomolar (pM) to the millimolar (mM) level. The experimental conditions mirrored those in our previously published work. […] A constant concentration of red-labelled LC3B (10 nM) was incubated with sixteen 1:1 serial dilutions of peptides (concentration details are consultable in the Supplementary Materials, Table S1). PBS-T (phosphate-buffered saline + 0.05% Tween™ 20), from NanoTemper Technologies, with 2.5% dimethyl sulfoxide (DMSO) (Product No. D8418; Sigma-Aldrich, Saint Louis, MO, USA) was used as buffer. After 15 min of incubation at room temperature, samples were loaded into standard capillaries (Product No. MO-K022; NanoTemper Technologies) and analyzed at 25 °C with 20% excitation power and medium MST power (40%) using the “Binding Affinity” mode available in the MO.Control v1.6 software (NanoTemper Technologies GmbH, München, Germany). Prior to Kd determination, peptide auto-fluorescence was assessed. […] The “Capillary Scan” graphs, showing the fluorescence homogeneity in the capillaries of all biophysically tested peptides, are provided in the Supplementary Materials, Figure S5.

[2] = target: human recombinant His-tagged LC3B (Homo sapiens, UniProt Q9GZQ8); assay: MST binding to human recombinant His-tagged LC3B; details: Table S1
Procedure: To measure the dissociation constants (Kd) of the peptides on human recombinant His-tagged LC3B protein, MST experiments were carried out on a Monolith NT.115^Pico instrument (see the Materials and Methods section for details).
A constant concentration of red-labelled LC3B (10 nM) was incubated with sixteen 1:1 serial dilutions of peptides (concentration details are consultable in the Supplementary Materials, Table S1). PBS-T (phosphate-buffered saline + 0.05% Tween™ 20), from NanoTemper Technologies, with 2.5% dimethyl sulfoxide (DMSO) (Product No. D8418; Sigma-Aldrich, Saint Louis, MO, USA) was used as buffer. After 15 min of incubation at room temperature, samples were loaded into standard capillaries (Product No. MO-K022; NanoTemper Technologies) and analyzed at 25 °C with 20% excitation power and medium MST power (40%) using the “Binding Affinity” mode available in the MO.Control v1.6 software (NanoTemper Technologies GmbH, München, Germany). Prior to Kd determination, peptide auto-fluorescence was assessed. Data analysis was performed using MO.Affinity Analysis v2.3 software (NanoTemper Technologies GmbH, München, Germany) applying the Kd model for fitting the binding curve, while the figures were generated using GraphPad Prism v8.0.2 software (GraphPad, Boston, MA, USA).
Two independent experiments were performed to determine the Kd value.
RA = Response Amplitude; SNR = Signal -to-Noise Ratio.

LC3B (Homo sapiens) = LC3B (Homo sapiens) (UniProt Q9GZQ8); details: cited from earlier work
PC-3 cells [3] = assay: MTT cell viability, PC-3; format: cell-based, Human
Procedure: The study was conducted on several cancer cells. Human CRPC cell lines (PC-3 and DU145) were purchased from the American Type Culture Collection (ATCC, Manassas, VA, USA) and cultured at 37 °C and 5% CO2 in RPMI 1640 (EuroClone, Milano, Italy) supplemented, respectively, with 7.5% (PC3) and 5% (DU145) FBS (Gibco, ThermoFisher Scientific, Waltham, MA, USA), 1% L-glutamine, and antibiotics (100 IU/mL penicillin G). Luminal A MCF-7 breast cancer cells (ATCC, Manassas, VA, USA) were cultured in Dulbecco’s Modified Eagle Medium/Nutrient Mixture F-12 (DMEM-F12, Gibco Laboratories, Waltham, MA, USA) supplemented with 10% fetal bovine serum (FBS, Gibco Laboratories, Waltham, MA, USA), 1% penicillin/streptomycin (Gibco Laboratories), and 1% L-glutamine (Gibco Laboratories). A549 human lung cancer cell line (ATCC, Manassas, VA, USA) were cultured in Dulbecco’s modified eagle medium (DMEM, Lonza, Switzerland) supplemented with 10% FBS (Gibco Laboratories, Waltham, MA, USA), 1% of 100 u/mL penicillin/streptomycin (Gibco Laboratories), and 1% L-glutamine (Gibco Laboratories). […]
(§1) For viability studies, MTS (Cell Titer 96 Aqueous One Solution Cell Proliferation Assay) (Promega, Nacka, Sweden) and 3-(4,5-dimethylthiazole-2-yl)-2,5-diphenyltetrazolium bromide (MTT) (Sigma-Aldrich, St. Louis, MO, USA) assays were conducted. […] The absorbance (λ = 550 nm) was measured by an EnSpire Multimode Plate reader (Perkin Elmer, Milano, Italy). The absorbance value of untreated cells was set at 100% (control), and the viability of treated cells was expressed as a percentage of the control. […] After 72 h, cell viability was assessed using an MTS assay according to the manufacturer’s protocol using a 96-well-plate spectrophotometer (Varioskan Flash Multimode Reader; ThermoFisher Scientific, Waltham, MA, USA) set at λ = 490 nm. The absorbance value of untreated cells was set at 100% (control), and the viability of treated cells was expressed as a percentage of the control. […]

[4] = test system: LC3-I and LC3-II in PC-3 cells; assay: Western blot of LC3-I and LC3-II in PC-3 cells; format: cell-based, Human; details: for LC3-I / LC3-II expression, Doc/AM10 experiment: AM10, Doc (25 nM) or both
Procedure: (§2) PC-3 cells were plated at 2 × 10^5 cells/dish in 6 cm dishes and treated with different compounds. At the end of the treatments the cells were lysed in RIPA buffer. Protein extracts (15–35 μg) were resuspended in presence of reducing Sample buffer (Bio-Rad Laboratories, Segrate, Milano, Italy), heated at 95 °C for 5 min and separated by SDS-PAGE WB. Proteins were transferred onto nitrocellulose or PVDF membranes. After blocking with nonfat dried milk, membranes were incubated with anti-ATG5 (1:1000) (#12994) Cell Signaling Technology Inc. (Boston, MA, USA), anti-LC3 (1:1000) (L8918) (Sigma-Aldrich), anti-SQSTM1/p62 (1:2000) (PA5-20839) (Thermo Fisher Scientific, Waltham, MA, USA), anti-cleaved-caspase-3 (1:500) (#9664) Cell Signaling Technology Inc. primary antibodies overnight at 4 °C. Horseradish peroxidase (HRP) conjugated secondary anti-rabbit or anti-mouse antibodies were used for 1 h at room temperature and the membranes were processed using chemiluminescence kit Cyanagen Ultra (Cyanagen, Bologna, Italy). In each WB experiment alpha-tubulin expression (T6199) (Sigma-Aldrich, St. Louis, MO, USA) was evaluated as a protein control. Relative optical density of the bands was assessed by ImageJ software (version 1.54g). Uncropped WB images are available in the Supporting Information.

[5] = test system: cleaved caspase-3 in PC-3 cells; assay: Western blot of cleaved caspase-3 in PC-3 cells; format: cell-based, Human; details: AM10, Doc (25 nM) or both, 48 h
Procedure: as §2

[6] = test system: breast and colon cancer cells; details: ref [32]; cited from earlier work
Source text: The growing applications of bromine and iodine substituents in anticancer treatment lend ...

autophagy in PC-3 cells = assay: Autophagosome formation and autophagic flux in PC-3 cells (LC3-I, LC3-II, p62); format: cell-based, Human; details: as evidenced by LC3-I
Procedure: as §2

MCF-7 cells = assay: MTS cell viability, MCF-7; format: cell-based; details: 72 h, 0.0025 to 5 μM, n = 4
Procedure: (§3) The study was conducted on several cancer cells. Human CRPC cell lines (PC-3 and DU145) were purchased from the American Type Culture Collection (ATCC, Manassas, VA, USA) and cultured at 37 °C and 5% CO2 in RPMI 1640 (EuroClone, Milano, Italy) supplemented, respectively, with 7.5% (PC3) and 5% (DU145) FBS (Gibco, ThermoFisher Scientific, Waltham, MA, USA), 1% L-glutamine, and antibiotics (100 IU/mL penicillin G). […]
as §1

DU145 cells = assay: MTT cell viability, DU145 (ATG5-deficient); format: cell-based, Human; details: 72 h, dose printed 5 mM, n = 6
Procedure: as §3, §1

p62 in PC-3 cells = assay: Western blot of p62 (SQSTM1) in PC-3 cells; format: cell-based, Human; details: 72 h and 96 h
Procedure: as §2

A549 cells = assay: MTS cell viability, A549; format: cell-based, human; details: 72 h, 0.0025 to 5 μM, n = 4
Procedure: as §3, §1

A375 cells = assay: MTS cell viability, A375; format: cell-based; details: 72 h, 0.0025 to 5 μM, n = 4
Procedure: as §3, §1

PC cells = details: with Doc, cited from earlier work
Source text: (§4) Many studies have analyzed the nature of autophagy activated by Doc in PC and the impact of autophagy inhibitors on cell proliferation. The results obtained using 3-Methyladenine (3-MA) in association with Doc were contradictory. […] A more convincing result was obtained using the autophagy inhibitor CQ which enhanced the action ...

PC-3 cells [7] = details: with Doc; ref [45]; cited from earlier work
Source text: as §4

For `C[C@]12CC[C@H](O)CC1=CC[C@@H]1[C@@H]2CC[C@]2(C)C(c3cccnc3)=CC[C@@H]12` [Abiraterone], the autophagic response (autophagic response) is listed as “activate an autophagic response that reduces their effectiveness”.

With `CC[C@H](C)[C@H](NC(=O)[C@H](CC(=O)O)NC(=O)[C@H](Cc1ccccc1)NC(=O)[C@@H](NC(=O)[C@H](C)NC(=O)[C@@H](N)CC(=O)O)C(C)C)C(=O)N[C@H](C(=O)N[C@H](C(=O)N[C@H]1CSCc2ccc(cc2)CSC[C@@H](C(=O)O)NC(=O)[C@H](CCC(=O)O)NC(=O)[C@H](CCC(=O)O)NC1=O)[C@@H](C)O)[C@@H](C)CC` [AM7] the “aggregation at highest concentrations, in words” value ([1]; 125, 62.5 and 31.25 µM, MST capillary scan, PBS-T + 2.5% DMSO) was “the three highest concentration points (125, 62.5, and 31.25 µM) were discarded due to aggregation; also recorded: the three highest concentrations (125, 62.5, and 31.25 µM) were excluded from analysis due to aggregation phenomena”, the “concentration at which aggregation is displayed” value ([1]; MST buffer PBS-T + 2.5% DMSO, 25 °C) was at least 31.25 µM and the “Response Amplitude (RA)” value [2] was 3.7.

In the case of `CC[C@H](C)[C@H](NC(=O)[C@H](CC(=O)O)NC(=O)[C@H](Cc1ccc(I)cc1)NC(=O)[C@@H](NC(=O)[C@H](C)NC(=O)[C@@H](N)CC(=O)O)C(C)C)C(=O)N[C@H](C(=O)N[C@H](C(=O)N[C@@H](CC(=O)O)C(=O)N[C@@H](CCC(=O)O)C(=O)N[C@@H](CCC(=O)O)C(=O)N[C@@H](CC(C)C)C(=O)O)[C@@H](C)O)[C@@H](C)CC` [AM2], the “Response Amplitude (RA)” value [2] is reported as 7.8.

For FYCO1-LIR peptide, the Kd (LC3B (Homo sapiens)) is listed as 3.1 µM.

With `CC(=O)O[C@@]12CO[C@@H]1C[C@H](O)[C@@]1(C)C(=O)[C@H](O)C3=C(C)[C@@H](OC(=O)[C@H](O)[C@@H](NC(=O)OC(C)(C)C)c4ccccc4)C[C@@](O)([C@@H](OC(=O)c4ccccc4)[C@H]21)C3(C)C` [Doc, Docetaxel, reference compound] the “PC-3 cell viability, Docetaxel” value (PC-3 cells [3]; MTT, 48 h, 1-100 nM) was “significant reduction in cell viability at concentrations of 10 nM, 25 nM, 50 nM, and 100 nM, with a dose-dependent effect”, the “LC3-I / LC3-II expression, Doc/AM10 experiment” value ([4]; 48 h) was “significant increase in LC3-II expression” and the “cleaved caspase-3 / apoptosis” value [5] was “trigger apoptotic cell death by activating the executor caspase-3”.

In the case of `CNC(=O)c1ccc(N2C(=S)N(c3ccc(C#N)c(C(F)(F)F)c3)C(=O)C2(C)C)cc1F` [Enzalutamide], the autophagic response (autophagic response) is given as “activate an autophagic response that reduces their effectiveness”.

In the case of `Cc1ccc(S(=O)(=O)[N-]Br)cc1.[Na+]` [bromamine T], the “cytotoxic effects against breast and colon cancer cells” value [6] is given as “strong cytotoxic effects against breast and colon cancer cells”.

For `CC[C@H](C)[C@H](NC(=O)[C@H](CC(=O)O)NC(=O)[C@H](Cc1ccc(I)cc1)NC(=O)[C@@H](NC(=O)[C@H](C)NC(=O)[C@@H](N)CC(=O)O)C(C)C)C(=O)N[C@@H](CCSC)C(=O)N[C@H](C(=O)N[C@H]1CSSC[C@@H](C(=O)O)NC(=O)[C@H](CCC(=O)O)NC(=O)[C@H](CCC(=O)O)NC1=O)[C@@H](C)O` [AM10], the “autophagosome formation and autophagic flux (Conclusions)” value (autophagy in PC-3 cells) was “inhibited autophagosome formation and autophagic flux”, the MCF-7 cell viability (MCF-7 cells) was “concentration-dependent reduction in cell viability” and the PC-3 cell viability (PC-3 cells [3]; MTT, 72 h, 0.0025-5 μM (method), n = 6) was “all peptides reduce cell viability in a significant dose-dependent manner starting from the 0.025 mM dose up to the 5 mM dose”. The “PC-3 cell viability (Conclusions)” value (PC-3 cells [3]; summary statement) was “diminished cell viability”, the “LC3-I and LC3-II expression, 48 h” value ([4]; 5 µM, 48 h) was “significantly reduced the level of LC3-I and LC3-II” and the “LC3-I and LC3-II expression, 72 h” value ([4]; 72 h) was “retains the ability to inhibit both LC3-I and LC3-II”. For the same compound, the “LC3-I / LC3-II expression, Doc/AM10 experiment” value ([4]; 48 h) was “reduces the expression of both LC3-I and LC3-II”, the DU145 cell viability (DU145 cells) was “no effect on cell viability” and the “Response Amplitude (RA)” value [2] was 2.8. For the same compound, the p62 expression (p62 in PC-3 cells) was “the expression of p62 increases significantly”, the “cleaved caspase-3 / apoptosis” value [5] was “does not induce caspase-3 activation” and the A549 cell viability (A549 cells) was “concentration-dependent reduction in cell viability”. For the same compound, the A375 cell viability (A375 cells) was “concentration-dependent reduction in cell viability”.

In the case of `CCN(CC)CCCC(C)Nc1ccnc2cc(Cl)ccc12` (stereo not shown) [CQ, Chloroquine], the “effect on the action of Doc” value (PC cells; ref [49]) is given as “enhanced the action of Doc by reducing resistance to chemotherapy”.

For `Cn1cnc(N)c2ncnc1-2` [3-MA, 3-Methyladenine], the “effect on chemotherapy efficacy” value (PC cells; ref [43],[47],[48]) is listed as “decreased the chemotherapy efficacy”, the “effect on cytotoxic action of Doc” value (PC cells; ref [46] Hu and collaborators) is listed as “enhanced the cytotoxic action of Doc” and the “effect on cytotoxicity of Doc in PC-3 cells” value (PC-3 cells [7]) is listed as “does not modify the cytotoxicity of Doc in PC-3 cells”.
